Consider 55 compounds from patent publication US6599548B2, “Ambient stable beverage” (priority 2000, dated 2003).

Converted amounts (≈) assume the structure as drawn. Read-outs that look alike come from different tables or passages of the source. Bounds are passed on as bounds.

What all share (assay type): cell-based
For one assay, the system named is fungi. In words: Fungicidal activity of pasteurisation adjuncts at 50° C. versus 30° C. (MIC50). The conditions noted are these: for Importance: rating of importance as pasteurisation adjunct. How it is done:
In the table the minimum inhibitory concentration (MIC) is given for each compound as well as the molecular weight (M.W.), the logPoct and a rating of its importance. […] The logPoct, that is the logarithm of the partition coefficient of the relevant compound in octanol and thus a measure of its […], was determined using […]™ software from the CHEMOFFICE ULRA ENHANCED 2000™ software package (version 5.5) that is commercially available from CambridgeSoft.

A short description of assay [1]: Minimum inhibitory concentration (MIC) of antimicrobials / essential oils. The text has this: The minimum inhibitory concentration (MIC) is given for each compound.
In each case the respective minimum inhibitory concentration (MIC) and their specific preferred concentration is also given.

Assay [2] deals with yeast Saccharomyces cerevisiae X2180-1B. Put plainly: Yeast growth in Ready to Drink tea (0.14% tea, pH 3.4) after 2 min at temperature, OD 600 nm at 14 days. The conditions noted are these: RTD tea; for prevention of yeast growth by low levels of the adjunct: adjunct 0-12 ppm in combination with cinnamic acid 0-60 ppm.
The mark [3] stands for this setting: Table I, preferred essential oils.
Where [4] appears, read: 20° C., adjunct 0-12 ppm, cinnamic acid 0-60 ppm.
Where [5] appears, read: minimum inhibitory concentration, fungicidal activity when heated to 50° C.
The mark [6] stands for this setting: Table II, particularly preferred essential oils.
[7] abbreviates: read-out: MIC50 in ppm (in brackets under the mM value).

Regarding `CCCCCCCCCCCCC=O` [Tridecanal], the Importance entry with fungi is on record as “High”. `C/C(C=O)=C\c1ccccc1` [α-Methyl-trans-cinnamaldehyde]: in assay [1] (setting [3]), the “MIC (ppm)” value came out at 58.4 ppm.

On to `CCCCCOC(=O)CCCCC` [Amyl hexanoate], for which the Importance result with fungi is “High”. On the same count and under the same terms, under `CCCCCC(=O)OCCc1ccccc1` [Phenethyl hexanoate] stands “High”; under `C=CCOC(=O)CCC1CCCCC1` [Allyl cyclohexanepropionate], “High”. Broadly, the MIC50 is an inhibitory concentration at the 50% level, which refers to growth in some studies and to a panel of isolates in others. `CCCCCCCCCCCCO` [Lauric alcohol]: in assay [2] (setting [4]), the “effect on yeast growth at low temperature” value (“effect on yeast growth” for short) was “little effect”. Further, the “prevention of yeast growth by low levels of the adjunct” value in assay [2] is “prevention of yeast growth”. In addition, in the assay on fungi (setting [5]), the “MIC50” value is given as 0.1 mM and the “MIC50 in ppm (in brackets under the mM value)” value is given as “(18.6 ppm”. Moreover, the Importance result in the assay with fungi is on record as “High”.

For the compound `CCCCCCOC(=O)CCCCC` [Hexyl hexanoate], in the assay on fungi, the Importance entry is “High”.

`CCCCCCCCCC(=O)OCC` [Ethyl decanoate]: the Importance result in the assay with fungi is “High”. Same read-out and setting: next, `C=CC(C)(O)CCC=C(C)CCC=C(C)C` (centres unmarked) [Nerolidol]: “High”.

For the compound methyl decenoate, in the assay with fungi, the “fungicidal activity at 30° C.” value is listed as “no fungicidal activity” and the “fungicidal activity when heated to 50° C.” value was “significant fungicidal activity”. As for `C=CCCCCCCCCC(=O)OCC` [Ethyl 10-undecenoate], the Importance entry in the assay with fungi is given as “High”. The same measure, in the same setting: next, `CC(C)C(=O)OCCOc1ccccc1` [2-Phenoxylethyl isobutyrate]: “High”. A word on the MIC: it is the least concentration at which growth counts as inhibited. A low value points to greater potency. The compound `O=C(O)C=Cc1ccccc1` [Cinnamic acid] yielded an MIC in assay [1] (setting [3]) of 148 µg/mL (≈ 999 µM). Further, in assay [1] (setting [6]), the “MIC (ppm)” value is recorded as 148 ppm. On the same counts, the results for `CC(=O)OCc1ccc2c(c1)OCO2` [Piperonyl acetate] are 242 µg/mL and 242 ppm.

Take `CCC(=O)OC/C=C(\C)CCC=C(C)C` [Geranyl propionate]: the Importance entry with fungi is given as “High”.

On to `O=C1CCCCCCCCCCCCCCO1` [w-Pentadecalactone], for which the “MIC50” value in the assay on fungi (setting [5]) is recorded as 60 mM. For the compound `CCCCCC1CCC(=O)O1` (centres unmarked) [γ-Nonanoic lactone], in assay [1] (setting [3]), the “MIC (ppm)” value is 63 ppm. In the case of `CCCCCCCCCC(=O)OC` [Methyl decanoate], the Importance entry with fungi is listed as “High”. Take `CCCCCCCCCCCC=O` [Lauric aldehyde]: in the assay on fungi (setting [5]), the “MIC50” value came to 0.2 mM and the “MIC50 in ppm (in brackets under the mM value)” value is “(36 ppm”. Also, the Importance result with fungi is reported as “High”. With `CCCCCCCCCCOC(C)=O` [Decyl acetate], the “effect on yeast growth” value in assay [2] (setting [4]) is given as “little effect”. The “effect on yeast growth” value in assay [2] (FIGS. 23, 24, adjunct alone 0-200 ppm, low temperature) was “little effect”. The “prevention of yeast growth by low levels of the adjunct” value in assay [2] is listed as “prevention of yeast growth”. In the assay with fungi, the “fungicidal activity at 30° C.” value was “no fungicidal activity”, the “fungicidal activity when heated to 50° C.” value is given as “significant fungicidal activity” and the Importance entry is “High”.

As for `CC1(C)C2CC=C(CO)C1C2` (centres unmarked) [Myrtenol], the “MIC (ppm)” value in assay [1] (setting [3]) and in assay [1] (setting [6]) was 137 ppm each time. `CCCCCCCCCCC=CC=O` [2-Tridecenal]: in the assay with fungi, the Importance result is listed as “High”. For the same compound, in the assay with fungi (setting [7]), the MIC50 was below 9.8 µg/mL. Take `CC1CCC(C(C)C)C(O)C1` (centres unmarked) [Neomenthol]: the “MIC (ppm)” value in assay [1] (setting [3]) came out at 156 ppm. Turning to `C=C1CC/C=C(\C)CC[C@@H]2[C@@H]1CC2(C)C` [β-Caryophylene], the “MIC50” value in the assay with fungi (setting [5]) is listed as 70 mM. Consider `CCCC1CCCC(=O)O1` (centres unmarked) [δ-Octalactone], for which, in assay [1] (setting [3]), the “MIC (ppm)” value came to 568 ppm. `CCCCCCCCCC(C)=O` [2-Undecanone]: in the assay on fungi, the Importance result is given as “High”. Still for that read-out and setting: under `CCCCCC(=O)OCCC(C)C` [Isoamyl hexanoate] stands “High”; under `CCCCCCCOC(=O)CCC` [Heptyl butyrate], “High”. Same read-out and setting: next, `CCCCCCCCCCOC(=O)CC` [Decyl propionate]: “High”. On to `C=C(C)C1CC=C(C)C(OC(=O)CC)C1` (centres unmarked) [Carvyl propionate], for which, in the assay on fungi (setting [5]), the “MIC50” value is 5 mM. As for `CCCCCCC(=O)OCCCC` [Butyl heptanoate], the Importance entry with fungi is recorded as “High”. The same measure, in the same setting: under `CCCCCCCCOC(=O)CCC` [Octyl butyrate] stands “High”. On the same count and under the same terms, under `CCCCCCCCCCCCC(=O)O` [Tridecanoic acid] stands “High”. For w-6-Hexadecalactone, in the assay with fungi (setting [5]), the “MIC50” value was determined as 50 mM. Take `CCCCCCCCCCCCCO` [Tridecanol]: the Importance result with fungi was “High”. With `C=C(C)C1CCC(C)C(O)C1` (centres unmarked) [Dihydrocarveol], the “MIC (ppm)” value in assay [1] (setting [3]) was determined as 540 ppm. Consider `CCCCCCCCCCCCCC(=O)O` [Myristic acid], for which the Importance result in the assay with fungi is recorded as “High”. Consider `CCCCCCCCC(=O)OC` [Methyl nonanoate], for which the Importance result in the assay on fungi is “High”. In the case of `CC(C)c1ccc(CO)cc1` [Cumic alcohol], the “MIC (ppm)” value in assay [1] (setting [3]) and in assay [1] (setting [6]) was 450 ppm each time.

On to `CCCC(=O)OC/C=C(\C)CCC=C(C)C` [Geranyl butyrate], for which, in the assay with fungi, the Importance entry is “High”. For `CC=CC=CC=O` [Sorbic aldehyde (2,4-hexadienal)], the “MIC (ppm)” value in assay [1] (setting [3]) was 86 ppm.

Regarding `CCCCCCCCCCCC(=O)O` [Lauric acid], the Importance result with fungi is listed as “High”. Further, the MIC50 in the assay with fungi (setting [7]) came out at 20 µg/mL. Take `CCCCCCCC1CCC(=O)O1` (centres unmarked) [γ-Undecalactone]: in assay [1] (setting [3]), the “MIC (ppm)” value was 28 ppm.

For the compound `CCCCCCCCCOC(C)=O` [Nonyl acetate], the Importance entry in the assay on fungi is reported as “High”.

Regarding `CCCCCCCCCCC(=O)OC` [Methyl undecanoate], the Importance result in the assay on fungi is “High”. `CCCCCCCCC(=O)OCC` [Ethyl nonanoate]: the Importance entry with fungi is recorded as “High”. With Tolualdehyde, the “MIC (ppm)” value in assay [1] (setting [3]) is listed as 240 ppm. As to `O=C(c1ccccc1)C(O)c1ccccc1` (centres unmarked) [Benzoin], the Importance with fungi was found to be 10. Take `CC=CCCCCCCCC(=O)OC` [Methyl-9-undecenoate]: the Importance entry in the assay with fungi is given as “High”. Turning to `CC(=O)OC/C=C(\C)CCC=C(C)C` [Geranyl acetate], the Importance entry with fungi was “High”. On the same count and under the same terms, under `CC(=O)CC/C=C(\C)CCC=C(C)C` [Geranyl acetone] stands “High”; under `CCCCCCCC=CC(=O)OCC` [Ethyl 2-decenoate], “High”; under `CC(C)=CCC/C(C)=C\COC(=O)C(C)C` [Neryl isobutyrate], “High”. Consider `CCCCCCCCCC=CC=O` [2-Dodecenal], for which the Importance entry with fungi is recorded as “High”. Besides, the MIC50 with fungi (setting [7]) is below 9 µg/mL. For `CCCCCCCCCCCC(=O)OC` [Methyl laurate], the Importance result in the assay on fungi was “High”.
